The values that follow come from patent US20260258064A1 (SIRONAX LTD., priority 2023, published 2026).

In general, IC50 refers to the concentration at which inhibition is half-maximal.

The structures appear in SMILES notation.

The test has as its target T1, SARM1 (50-724) (Homo sapiens, UniProt Q6SZW1).
T1 construct: Purified SARM1 (50-724) with a final concentration of 2 nM was pre-incubated with a test compound
T1 sequence (Q6SZW1 50-724): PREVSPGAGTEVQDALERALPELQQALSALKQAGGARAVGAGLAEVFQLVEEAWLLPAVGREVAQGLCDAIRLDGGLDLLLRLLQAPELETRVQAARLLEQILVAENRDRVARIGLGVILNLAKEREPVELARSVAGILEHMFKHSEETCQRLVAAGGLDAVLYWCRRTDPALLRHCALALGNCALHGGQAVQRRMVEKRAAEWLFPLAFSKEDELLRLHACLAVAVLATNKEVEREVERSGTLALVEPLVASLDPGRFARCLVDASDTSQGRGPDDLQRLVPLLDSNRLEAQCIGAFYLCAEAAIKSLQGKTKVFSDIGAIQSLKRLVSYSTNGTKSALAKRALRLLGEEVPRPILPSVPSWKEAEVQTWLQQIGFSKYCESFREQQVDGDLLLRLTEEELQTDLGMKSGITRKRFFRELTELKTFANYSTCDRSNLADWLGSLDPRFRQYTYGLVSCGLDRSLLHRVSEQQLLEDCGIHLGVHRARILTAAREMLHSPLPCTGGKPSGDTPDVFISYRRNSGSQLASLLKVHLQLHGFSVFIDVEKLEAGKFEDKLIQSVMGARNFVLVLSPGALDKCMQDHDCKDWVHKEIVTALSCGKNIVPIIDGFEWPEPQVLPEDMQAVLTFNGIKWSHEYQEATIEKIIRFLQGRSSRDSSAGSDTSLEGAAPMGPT
As to the kind of experiment: SARM1 (50-724) enzymatic assay (LC-MS/MS). Type of test: biochemical. Particulars: Purified SARM1 (50-724) 2 nM, NMN as activator, NAD+ as substrate, 1 h at room temperature, read-out: IC50 (SARM1 inhibitory activity). How it is done: An enzymatic assay was performed in a 384-well plate using Dulbecco's phosphate-buffered saline (PBS) as the reaction buffer. Purified SARM1 (50-724) with a final concentration of 2 nM was pre-incubated with a test compound at […] final assay concentration for 15 min at room temperature. The reaction was initiated by adding a mixture of […] nicotinamide mononucleotide (NMN) as activator and […] NAD^+ as substrate. After 1 h of incubation at room temperature, the reaction was terminated with 10 times volume of 70% acetonitrile, and then centrifuged at 3800 rpm for 10 min. The samples were analyzed using LC-MS/MS after diluted to a proper concentration by 10 mM ammonium acetate (pH 9.75).
In Table 2, activity is provided as follows: A: IC50≤100 nM; B: 100 nM<IC50≤500 nM; C: 500 nM<IC50≤1000 nM; D: IC50>1000 nM.

Regarding `Oc1ccc(Cl)c(-n2cnnc2-c2nc3cc(C(F)(F)F)ccc3[nH]2)n1` [Example 115], the IC50 is at most 100 nM. `Fc1cc(C2CC23CC3)cc2nc(-c3nncn3-c3cnccc3C(F)(F)F)[nH]c12` (stereo not shown) [Compound 338, 7-fluoro-5-spiro[2.2]pentan-2-yl-2-[4-[4-(trifluoromethyl)-3-pyridyl]-1,2,4-triazol-3-yl]-1H-benzimidazole]: the IC50 is at most 100 nM. Turning to `CN1CCC(C)(c2ccc3[nH]c(-c4nncn4-c4ccc(F)c(F)c4Cl)nc3c2)C1=O` (stereo not shown) [Compound 165, 3-(2-(4-(2-chloro-3,4-difluorophenyl)-4H-1,2,4-triazol-3-yl)-1H-benzo[d]imidazol-5-yl)-1,3-dimethylpyrrolidin-2-one], the IC50 fell in the range of 100 to 500 nM.

Regarding `FC(F)(F)c1ccc2[nH]c(-c3nncn3-c3cccc4nccn34)nc2c1` [Example 62], the IC50 is above 1000 nM.

For the molecule `Cc1c(Cl)cncc1-n1cnnc1-c1nc2cc(C(F)(F)F)ccc2[nH]1` [Compound 58], the IC50 is at most 100 nM. Turning to `Fc1cc(C2CC2(F)F)cc2nc(-c3nncn3-c3cnccc3C(F)(F)F)[nH]c12` (stereo not shown) [Compound 298, 5-(2,2-difluorocyclopropyl)-7-fluoro-2-(4-(4-(trifluoromethyl)pyridin-3-yl)-4H-1,2,4-triazol-3-yl)-1H-benzo[d]imidazole], the IC50 was at most 100 nM. As to `NC(=O)C1CC1c1ccc2[nH]c(-c3nncn3-c3cnccc3C(F)(F)F)nc2c1F` (stereo not shown) [Compound 321, 2-(4-fluoro-2-(4-(4-(trifluoromethyl)pyridin-3-yl)-4H-1,2,4-triazol-3-yl)-1H-benzo[d]imidazol-5-yl)cyclopropane-1-carboxamide], the IC50 was at most 100 nM. Turning to `COc1cc(F)c2[nH]c(-c3nncn3-c3cnccc3C(F)(F)F)nc2c1` [Compound 328, 7-fluoro-5-methoxy-2-(4-(4-(trifluoromethyl)pyridin-3-yl)-4H-1,2,4-triazol-3-yl)-1H-benzo[d]imidazole], the IC50 is at most 100 nM. Take `Fc1cccc(-n2cnnc2-c2nc3cc(C(F)(F)F)ccc3[nH]2)c1F` [Example 84, 2-(4-(2,3-difluorophenyl)-4H-1,2,4-triazol-3-yl)-5-(trifluoromethyl)-1H-benzo[d]imidazole]: the IC50 is at most 100 nM. The figure for `O=S(=O)(Cc1nnc(-c2nc3cc(Cl)cc(F)c3[nH]2)n1-c1cccc(F)c1Cl)C1CC1` [Compound 194, 5-chloro-2-(4-(2-chloro-3-fluorophenyl)-5-((cyclopropylsulfonyl)methyl)-4H-1,2,4-triazol-3-yl)-7-fluoro-1H-benzo[d]imidazole] is at most 100 nM; for `O=c1onc(-c2cccc(Cl)c2Cl)n1-c1nc2cc(C(F)(F)F)ccc2[nH]1` [Compound 32] it is above 1000 nM; for `Fc1cc(C2CC2)cc2nc(-c3nnccc3-c3cnccc3C(F)(F)F)[nH]c12` [Compound 420, 6-cyclopropyl-4-fluoro-2-(4-(4-(trifluoromethyl)pyridin-3-yl)pyridazin-3-yl)-1H-benzo[d]imidazole] it is at most 100 nM. As for `Clc1cccc(-n2cnnc2-c2nc3cc(-c4cscn4)ccc3[nH]2)c1Cl` [Example 100, 4-(2-(4-(2,3-dichlorophenyl)-4H-1,2,4-triazol-3-yl)-1H-benzo[d]imidazol-5-yl)thiazole], the IC50 was at most 100 nM. For `CNC(=O)CCc1nnc(-c2nc3cc(C(F)(F)F)ccc3[nH]2)n1-c1cccc(Cl)c1Cl` [Compound 156, 3-(4-(2,3-dichlorophenyl)-5-(5-(trifluoromethyl)-1H-benzo[d]imidazol-2-yl)-4H-1,2,4-triazol-3-yl)-N-methylpropanamide], the IC50 is at most 100 nM. For the molecule `CC(C#N)c1ccc2[nH]c(-c3nncn3-c3ccc(F)c(F)c3Cl)nc2c1` (stereo not shown) [Compound 152, 2-(2-(4-(2-chloro-3,4-difluorophenyl)-4H-1,2,4-triazol-3-yl)-1H-benzo[d]imidazol-5-yl)propanenitrile], the IC50 was at most 100 nM. With `FC(F)(F)c1ccc2[nH]c(-c3nnccc3-c3ccncc3C(F)(F)F)nc2c1` [Compound 302, 5-(Trifluoromethyl)-2-(4-(3-(trifluoromethyl)pyridin-4-yl)pyridazin-3-yl)-1H-benzo[d]imidazole], the IC50 lay in the range of 100 to 500 nM. `FC(F)(F)c1ccncc1-n1cnnc1-c1nc2c(N3CC4(COC4)C3)c(Cl)ccc2[nH]1` [Compound 357, 6-(5-chloro-2-(4-(4-(trifluoromethyl)pyridin-3-yl)-4H-1,2,4-triazol-3-yl)-1H-benzo[d]imidazol-4-yl)-2-oxa-6-azaspiro[3.3]heptane]: the IC50 was above 1000 nM. Take `COC(=O)C(C)(C)c1ccc2[nH]c(-c3nncn3-c3cccc(Cl)c3Cl)nc2c1` [Example 102]: the IC50 was at most 100 nM.

Regarding `CS(=O)(=O)c1ccc(OC(F)(F)F)c(-n2cnnc2-c2nc3cc(C(F)(F)F)cc(F)c3[nH]2)c1` [Compound 217, 7-fluoro-2-(4-(5-(methylsulfonyl)-2-(trifluoromethoxy)phenyl)-4H-1,2,4-triazol-3-yl)-5-(trifluoromethyl)-1H-benzo[d]imidazole], the IC50 was at most 100 nM. As to `CN(c1cc(F)c2[nH]c(-c3nncn3-c3cnccc3C(F)(F)F)nc2c1)c1nccs1` [Compound 417, N-(7-fluoro-2-(4-(4-(trifluoromethyl)pyridin-3-yl)-4H-1,2,4-triazol-3-yl)-1H-benzo[d]imidazol-5-yl)-N-methylthiazol-2-amine], the IC50 was at most 100 nM. Take `Cc1nsc(Cl)c1-n1cnnc1-c1nc2cc(C(F)(F)F)ccc2[nH]1` [Example 118]: the IC50 is at most 100 nM. As to `FC(F)(F)c1ccc2[nH]c(-c3nncn3-c3cnccc3C(F)(F)F)c(-c3ccco3)c2c1` [Compound 376, 3-(2-furyl)-5-(trifluoromethyl)-2-[4-[4-(trifluoromethyl)-3-pyridyl]-1,2,4-triazol-3-yl]-1H-indole], the half-maximal inhibitory concentration (IC50) is at most 100 nM. Regarding `C=C(F)Cc1cc(F)c2[nH]c(-c3nncn3-c3cnccc3C(F)(F)F)nc2c1` [Compound 316, 7-fluoro-5-(2-fluoroallyl)-2-(4-(4-(trifluoromethyl)pyridin-3-yl)-4H-1,2,4-triazol-3-yl)-1H-benzo[d]imidazole], the IC50 was at most 100 nM. `FC(F)(F)c1ccc2[nH]c(-c3n[nH]cc3-c3cccc(Cl)c3Cl)nc2c1` [Example 43]: the IC50 lay in the range of 500 to 1000 nM. In the case of `CC(=O)c1ccc2[nH]c(-c3nncn3-c3ccc(F)c(F)c3Cl)nc2c1` [Compound 158, 1-(2-(4-(2-chloro-3,4-difluorophenyl)-4H-1,2,4-triazol-3-yl)-1H-benzo[d]imidazol-5-yl)ethan-1-one], the IC50 was at most 100 nM. As for `CC(C)(O)c1ccc2[nH]c(-c3nncn3-c3cccc(Cl)c3Cl)nc2c1` [Example 96, 2-(2-(4-(2,3-dichlorophenyl)-4H-1,2,4-triazol-3-yl)-1H-benzo[d]imidazol-5-yl)propan-2-ol], the figure is at most 100 nM; as for `CS(=O)(=O)Cc1cccc(OC(F)(F)F)c1-n1cnnc1-c1nc2cc(C(F)(F)F)ccc2[nH]1` [Compound 289, 2-(4-(2-((methylsulfonyl)methyl)-6-(trifluoromethoxy)phenyl)-4H-1,2,4-triazol-3-yl)-5-(trifluoromethyl)-1H-benzo[d]imidazole], at most 100 nM; as for `FC(F)(F)c1ccc2[nH]c(-c3cccn3-c3nnccc3C(F)(F)F)nc2c1` [Compound 305, 5-(Trifluoromethyl)-2-(1-(4-(trifluoromethyl)pyridazin-3-yl)-1H-pyrrol-2-yl)-1H-benzo[d]imidazole], at most 100 nM.
